Results: PMC9598282 (Antibiotics, 2022)
Bridge positions count the residues as written; N and C are the ends. Square brackets hold non-standard residues; d marks the D form. Peptide text beside a SMILES is read from it. Dab = NCC[C@H](N)C(=O)O

Assays:
[1] = tested on: A. baumannii 92247; assay type: cell-based, Acinetobacter baumannii; details: 92247, 18 h
Procedure: (§1) For the preparation of the bacterial solution, overnight grown culture was diluted in 0.85% saline solution, adjusted to 0.5 McFarland turbidity and further diluted in Mueller–Hinton broth for inoculation to a final concentration of 5 × 10^5 colony forming units/mL (CFU/mL). The agents were serially diluted two-fold in a 96-well plate, and equal volumes of bacterial solution were subsequently added to the designated wells. The well consisting of bacterial solution served as the positive control, while the well containing only media served as the negative control. The plate was then incubated at 37 °C for 18 h. After incubation, an Emax Plus microplate reader (Molecular Devices, Union City, CA, USA) was used to measure the optical density (OD) at a wavelength of 590 nm to confirm the turbidity. The antibacterial activity corresponded to the MIC, which is defined as the lowest concentration of the agent necessary to inhibit visible bacterial growth.

[2] = tested on: A. baumannii ATCC 17978; assay type: cell-based, Acinetobacter baumannii; details: ATCC 17978, 18 h
Procedure: as §1

[3] = tested on: A. baumannii LAC-4; assay type: cell-based, Acinetobacter baumannii; details: LAC-4, 18 h
Procedure: as §1

[4] = tested on: P. aeruginosa 114228; assay: microbe, parasite or virus in culture; assay type: cell-based, Pseudomonas aeruginosa
Summary of the method: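 Two-fold serial dilutions of antibiotic and guanidinylated polymyxin adjuvant crossed in checkerboard against bacterial inoculum prepared as for susceptibility testing; 18 h at 37 °C, growth read as OD590. FIC index = sum of each agent's MIC in combination divided by its MIC alone; ≤0.5 synergy, >0.5–4 additivity, >4 antagonism.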

[5] = tested on: P. aeruginosa 101243; assay: Checkerboard assay; assay type: cell-based, Pseudomonas aeruginosa
Procedure: (§2) The adjuvant properties of the guanidinylated polymyxins were evaluated using the checkerboard assay as previously described. The bacterial solution was prepared as described in the antimicrobial susceptibility assay. The antibiotic of interest and the adjuvant were serially diluted two-fold along the x- and y-axis on a 96-well plate, respectively, resulting in varying concentrations of both agents in each well. Equal volumes of bacterial solution were added to the designated wells. The well consisting of bacterial solution served as the positive control, while the wells containing only media served as the negative control. The plate was then incubated at 37 °C for 18 h. After incubation, an Emax Plus microplate reader (Molecular Devices, Union City, CA, USA) was used to measure the OD at a wavelength of 590 nm to confirm the turbidity. The fractional inhibitory concentration (FIC) index was then determined to establish the relationship between the antibiotic and adjuvant. The FIC index corresponds to the sum of the FICs of the antibiotic and adjuvant. The FIC of each agent is calculated by dividing its MIC when it is used in combination by its MIC when used alone. FIC indices ≤0.5, 0.5 < x ≤ 4 and >4 indicate synergy, additivity and antagonism, respectively.

[6] = tested on: P. aeruginosa P259-96918; assay: Checkerboard assay; assay type: cell-based, Pseudomonas aeruginosa
Procedure: as §2

[7] = tested on: P. aeruginosa P262-101856; assay: Checkerboard assay; assay type: cell-based, Pseudomonas aeruginosa
Procedure: as §2

[8] = tested on: P. aeruginosa P264-104354; assay: Checkerboard assay; assay type: cell-based, Pseudomonas aeruginosa
Procedure: as §2

[9] = tested on: A. baumannii AB031; assay: Checkerboard assay; assay type: cell-based, Acinetobacter baumannii
Procedure: as §2

[10] = agent alone, one value per checkerboard plate

CC(C)C[C@@H]1NC(=O)[C@@H](Cc2ccccc2)NC(=O)[C@H](CCN)NC(=O)[C@@H](NC(=O)[C@H](CCN)NC(=O)[C@@H](N)[C@@H](C)O)CCNC(=O)[C@H]([C@@H](C)O)NC(=O)[C@H](CCN)NC(=O)[C@H](CCN)NC1=O [PMBN, polymyxin B nonapeptide] (H-T[Dab][Dab][Dab][dF]L[Dab][Dab]T; lactam 3-C (inferred); N-terminus assumed)
MIC [1]: >256 µg/mL | MIC [2]: >256 µg/mL | MIC [3]: >256 µg/mL | MIC alone ([4]; 114228, 18 h): 256 µg/mL | Fold-potentiation of aztreonam ([4]; with 8 μg/mL adjuvant): 1 | Fold-potentiation of ceftazidime ([4]; with 8 μg/mL adjuvant): 8 | Fold-potentiation of erythromycin ([4]; with 8 μg/mL adjuvant): 1 | Fold-potentiation of rifampicin ([4]; with 8 μg/mL adjuvant): 8 | MIC alone [5, 10]: > 256 µg/mL | Fold-potentiation of aztreonam ([5]; with 8 μg/mL adjuvant): 2 | Fold-potentiation of ceftazidime ([5]; with 8 μg/mL adjuvant): 8 | Fold-potentiation of erythromycin ([5]; with 8 μg/mL adjuvant): 1 | Fold-potentiation of rifampicin ([5]; with 8 μg/mL adjuvant): 8 | MIC alone [6, 10]: > 256 µg/mL | Fold-potentiation of aztreonam ([6]; with 4 μg/mL adjuvant): 8 | Fold-potentiation of ceftazidime ([6]; with 4 μg/mL adjuvant): 4 | Fold-potentiation of erythromycin ([6]; with 4 μg/mL adjuvant): 8 | Fold-potentiation of rifampicin ([6]; with 4 μg/mL adjuvant): 128 | MIC alone [7, 10]: > 256 µg/mL | Fold-potentiation of aztreonam ([7]; with 8 μg/mL adjuvant): 8 | Fold-potentiation of ceftazidime ([7]; with 8 μg/mL adjuvant): 4 | Fold-potentiation of erythromycin ([7]; with 8 μg/mL adjuvant): 16 | Fold-potentiation of rifampicin ([7]; with 8 μg/mL adjuvant): 16 | MIC alone [8, 10]: > 256 µg/mL | Fold-potentiation of aztreonam ([8]; with 2 μg/mL adjuvant): 2 | Fold-potentiation of ceftazidime ([8]; with 2 μg/mL adjuvant): 1 | Fold-potentiation of erythromycin ([8]; with 2 μg/mL adjuvant): 1 | Fold-potentiation of rifampicin ([8]; with 2 μg/mL adjuvant): 64 | MIC alone [9, 10]: > 256 µg/mL | Fold potentiation of aztreonam ([9]; with 0.5 μg/mL adjuvant): 1 | Fold-potentiation of ceftazidime ([9]; with 0.5 μg/mL adjuvant): 1 | Fold-potentiation of erythromycin ([9]; with 0.5 μg/mL adjuvant): 4 | Fold-potentiation of rifampicin ([9]; with 0.5 μg/mL adjuvant): 8
